Reference: the OligoGym collection
Oligonucleotides are given in HELM: sugar(base)linkage, 5' to 3'; d 2'-deoxyribose, r ribose, m 2'-O-methylribose, p phosphate. ss, as = sense and antisense strand
Further: test concentration or dose not given here.

The substances below were run against UBE2D3 (assay: reporter assay of Huesken 2005). Details: siRNA.
In the case of “RNA1{r(C)p.r(U)p.r(A)p.r(C)p.r(A)p.r(G)p.r(A)p.r(C)p.r(U)p.r(A)p.r(C)p.r(C)p.r(C)p.r(C)p.r(U)p.r(U)p.r(C)p.r(A)p.r(A)p.d(T)p.d(T)}|RNA2{r(U)p.r(U)p.r(G)p.r(A)p.r(A)p.r(G)p.r(G)p.r(G)p.r(G)p.r(U)p.r(A)p.r(G)p.r(U)p.r(C)p.r(U)p.r(G)p.r(U)p.r(A)p.r(G)p.d(G)p.d(A)}$$$RNA1{StrandType:ss}|RNA2{StrandType:as}$”, the normalised inhibition (eCFP-eYFP dual reporter) is reported as 94.9%.
With “RNA1{r(A)p.r(A)p.r(U)p.r(U)p.r(C)p.r(A)p.r(U)p.r(U)p.r(U)p.r(U)p.r(C)p.r(C)p.r(U)p.r(A)p.r(C)p.r(A)p.r(G)p.r(A)p.r(C)p.d(T)p.d(T)}|RNA2{r(G)p.r(U)p.r(C)p.r(U)p.r(G)p.r(U)p.r(A)p.r(G)p.r(G)p.r(A)p.r(A)p.r(A)p.r(A)p.r(U)p.r(G)p.r(A)p.r(A)p.r(U)p.r(U)p.d(G)p.d(T)}$$$RNA1{StrandType:ss}|RNA2{StrandType:as}$” the normalised inhibition (eCFP-eYFP dual reporter) was 62.3%.
For “RNA1{r(U)p.r(A)p.r(A)p.r(U)p.r(G)p.r(A)p.r(C)p.r(A)p.r(G)p.r(C)p.r(C)p.r(C)p.r(A)p.r(U)p.r(A)p.r(U)p.r(C)p.r(A)p.r(A)p.d(T)p.d(T)}|RNA2{r(U)p.r(U)p.r(G)p.r(A)p.r(U)p.r(A)p.r(U)p.r(G)p.r(G)p.r(G)p.r(C)p.r(U)p.r(G)p.r(U)p.r(C)p.r(A)p.r(U)p.r(U)p.r(A)p.d(G)p.d(G)}$$$RNA1{StrandType:ss}|RNA2{StrandType:as}$”, the normalised inhibition (eCFP-eYFP dual reporter) was 97.7%.
Work on “RNA1{r(G)p.r(A)p.r(C)p.r(U)p.r(A)p.r(C)p.r(C)p.r(C)p.r(C)p.r(U)p.r(U)p.r(C)p.r(A)p.r(A)p.r(A)p.r(C)p.r(C)p.r(A)p.r(C)p.d(T)p.d(T)}|RNA2{r(G)p.r(U)p.r(G)p.r(G)p.r(U)p.r(U)p.r(U)p.r(G)p.r(A)p.r(A)p.r(G)p.r(G)p.r(G)p.r(G)p.r(U)p.r(A)p.r(G)p.r(U)p.r(C)p.d(T)p.d(G)}$$$RNA1{StrandType:ss}|RNA2{StrandType:as}$” yielded a normalised inhibition (eCFP-eYFP dual reporter) of 87.6%.
With “RNA1{r(G)p.r(U)p.r(G)p.r(G)p.r(U)p.r(C)p.r(G)p.r(C)p.r(C)p.r(U)p.r(G)p.r(C)p.r(U)p.r(U)p.r(U)p.r(A)p.r(A)p.r(C)p.r(A)p.d(T)p.d(T)}|RNA2{r(U)p.r(G)p.r(U)p.r(U)p.r(A)p.r(A)p.r(A)p.r(G)p.r(C)p.r(A)p.r(G)p.r(G)p.r(C)p.r(G)p.r(A)p.r(C)p.r(C)p.r(A)p.r(C)p.d(T)p.d(G)}$$$RNA1{StrandType:ss}|RNA2{StrandType:as}$” the normalised inhibition (eCFP-eYFP dual reporter) was 100%.
Work on “RNA1{r(U)p.r(C)p.r(U)p.r(G)p.r(C)p.r(A)p.r(G)p.r(G)p.r(U)p.r(C)p.r(C)p.r(A)p.r(G)p.r(U)p.r(U)p.r(G)p.r(G)p.r(G)p.r(G)p.d(T)p.d(T)}|RNA2{r(C)p.r(C)p.r(C)p.r(C)p.r(A)p.r(A)p.r(C)p.r(U)p.r(G)p.r(G)p.r(A)p.r(C)p.r(C)p.r(U)p.r(G)p.r(C)p.r(A)p.r(G)p.r(A)p.d(A)p.d(C)}$$$RNA1{StrandType:ss}|RNA2{StrandType:as}$” yielded a normalised inhibition (eCFP-eYFP dual reporter) of 32.9%.
For “RNA1{r(A)p.r(U)p.r(C)p.r(C)p.r(A)p.r(U)p.r(U)p.r(U)p.r(G)p.r(U)p.r(U)p.r(C)p.r(A)p.r(C)p.r(U)p.r(G)p.r(C)p.r(U)p.r(A)p.d(T)p.d(T)}|RNA2{r(U)p.r(A)p.r(G)p.r(C)p.r(A)p.r(G)p.r(U)p.r(G)p.r(A)p.r(A)p.r(C)p.r(A)p.r(A)p.r(A)p.r(U)p.r(G)p.r(G)p.r(A)p.r(U)p.d(A)p.d(A)}$$$RNA1{StrandType:ss}|RNA2{StrandType:as}$”, the normalised inhibition (eCFP-eYFP dual reporter) was 96.1%.
For “RNA1{r(U)p.r(A)p.r(U)p.r(G)p.r(G)p.r(G)p.r(A)p.r(C)p.r(C)p.r(U)p.r(A)p.r(A)p.r(U)p.r(G)p.r(A)p.r(C)p.r(A)p.r(G)p.r(C)p.d(T)p.d(T)}|RNA2{r(G)p.r(C)p.r(U)p.r(G)p.r(U)p.r(C)p.r(A)p.r(U)p.r(U)p.r(A)p.r(G)p.r(G)p.r(U)p.r(C)p.r(C)p.r(C)p.r(A)p.r(U)p.r(A)p.d(A)p.d(T)}$$$RNA1{StrandType:ss}|RNA2{StrandType:as}$”, the normalised inhibition (eCFP-eYFP dual reporter) was 44.4%.
“RNA1{r(C)p.r(C)p.r(A)p.r(U)p.r(U)p.r(U)p.r(G)p.r(U)p.r(U)p.r(C)p.r(A)p.r(C)p.r(U)p.r(G)p.r(C)p.r(U)p.r(A)p.r(U)p.r(G)p.d(T)p.d(T)}|RNA2{r(C)p.r(A)p.r(U)p.r(A)p.r(G)p.r(C)p.r(A)p.r(G)p.r(U)p.r(G)p.r(A)p.r(A)p.r(C)p.r(A)p.r(A)p.r(A)p.r(U)p.r(G)p.r(G)p.d(A)p.d(T)}$$$RNA1{StrandType:ss}|RNA2{StrandType:as}$” was tested, and the normalised inhibition (eCFP-eYFP dual reporter) was 94.5%.
In the case of “RNA1{r(A)p.r(U)p.r(C)p.r(C)p.r(A)p.r(A)p.r(A)p.r(C)p.r(C)p.r(C)p.r(A)p.r(G)p.r(A)p.r(U)p.r(G)p.r(A)p.r(C)p.r(C)p.r(C)p.d(T)p.d(T)}|RNA2{r(G)p.r(G)p.r(G)p.r(U)p.r(C)p.r(A)p.r(U)p.r(C)p.r(U)p.r(G)p.r(G)p.r(G)p.r(U)p.r(U)p.r(U)p.r(G)p.r(G)p.r(A)p.r(U)p.d(C)p.d(A)}$$$RNA1{StrandType:ss}|RNA2{StrandType:as}$”, the normalised inhibition (eCFP-eYFP dual reporter) is reported as 44.5%.
In the case of “RNA1{r(U)p.r(G)p.r(A)p.r(C)p.r(A)p.r(A)p.r(U)p.r(U)p.r(C)p.r(A)p.r(U)p.r(U)p.r(U)p.r(U)p.r(C)p.r(C)p.r(U)p.r(A)p.r(C)p.d(T)p.d(T)}|RNA2{r(G)p.r(U)p.r(A)p.r(G)p.r(G)p.r(A)p.r(A)p.r(A)p.r(A)p.r(U)p.r(G)p.r(A)p.r(A)p.r(U)p.r(U)p.r(G)p.r(U)p.r(C)p.r(A)p.d(A)p.d(A)}$$$RNA1{StrandType:ss}|RNA2{StrandType:as}$”, the normalised inhibition (eCFP-eYFP dual reporter) is reported as 55.4%.
For “RNA1{r(C)p.r(A)p.r(G)p.r(C)p.r(A)p.r(U)p.r(U)p.r(U)p.r(G)p.r(U)p.r(C)p.r(U)p.r(C)p.r(G)p.r(A)p.r(U)p.r(A)p.r(U)p.r(U)p.d(T)p.d(T)}|RNA2{r(A)p.r(A)p.r(U)p.r(A)p.r(U)p.r(C)p.r(G)p.r(A)p.r(G)p.r(A)p.r(C)p.r(A)p.r(A)p.r(A)p.r(U)p.r(G)p.r(C)p.r(U)p.r(G)p.d(C)p.d(C)}$$$RNA1{StrandType:ss}|RNA2{StrandType:as}$”, the normalised inhibition (eCFP-eYFP dual reporter) was 95.2%.
Substance “RNA1{r(C)p.r(C)p.r(U)p.r(A)p.r(G)p.r(U)p.r(G)p.r(C)p.r(C)p.r(A)p.r(G)p.r(A)p.r(G)p.r(A)p.r(U)p.r(U)p.r(G)p.r(C)p.r(A)p.d(T)p.d(T)}|RNA2{r(U)p.r(G)p.r(C)p.r(A)p.r(A)p.r(U)p.r(C)p.r(U)p.r(C)p.r(U)p.r(G)p.r(G)p.r(C)p.r(A)p.r(C)p.r(U)p.r(A)p.r(G)p.r(G)p.d(G)p.d(G)}$$$RNA1{StrandType:ss}|RNA2{StrandType:as}$” has a normalised inhibition (eCFP-eYFP dual reporter) of 86.2%.
“RNA1{r(U)p.r(U)p.r(G)p.r(C)p.r(A)p.r(U)p.r(U)p.r(U)p.r(A)p.r(C)p.r(A)p.r(A)p.r(C)p.r(A)p.r(A)p.r(G)p.r(A)p.r(A)p.r(U)p.d(T)p.d(T)}|RNA2{r(A)p.r(U)p.r(U)p.r(C)p.r(U)p.r(U)p.r(G)p.r(U)p.r(U)p.r(G)p.r(U)p.r(A)p.r(A)p.r(A)p.r(U)p.r(G)p.r(C)p.r(A)p.r(A)p.d(C)p.d(C)}$$$RNA1{StrandType:ss}|RNA2{StrandType:as}$” gave a normalised inhibition (eCFP-eYFP dual reporter) of 68.4%.
